From patent publication US11484607B2, “PSMA-targeted NIR dyes and their uses” (On Target Laboratories, LLC, priority 2015, dated 2022)

How the values were obtained:
PSMA = target: T1, PSMA (Homo sapiens, UniProt Q04609); assay: Relative binding affinity of DUPA-NIR conjugates with respect to DUPA-FITC on 22Rv1 cells, flow cytometry; conditions: for Kd: conjugates with aromatic linkers, 1 h at 37° C., 100 nM DUPA-FITC; for affinity for PSMA (in words): in vitro binding affinity data
T1 construct: host or cells: 22Rv1 human prostate cancer cells
T1 sequence (Q04609 whole entry): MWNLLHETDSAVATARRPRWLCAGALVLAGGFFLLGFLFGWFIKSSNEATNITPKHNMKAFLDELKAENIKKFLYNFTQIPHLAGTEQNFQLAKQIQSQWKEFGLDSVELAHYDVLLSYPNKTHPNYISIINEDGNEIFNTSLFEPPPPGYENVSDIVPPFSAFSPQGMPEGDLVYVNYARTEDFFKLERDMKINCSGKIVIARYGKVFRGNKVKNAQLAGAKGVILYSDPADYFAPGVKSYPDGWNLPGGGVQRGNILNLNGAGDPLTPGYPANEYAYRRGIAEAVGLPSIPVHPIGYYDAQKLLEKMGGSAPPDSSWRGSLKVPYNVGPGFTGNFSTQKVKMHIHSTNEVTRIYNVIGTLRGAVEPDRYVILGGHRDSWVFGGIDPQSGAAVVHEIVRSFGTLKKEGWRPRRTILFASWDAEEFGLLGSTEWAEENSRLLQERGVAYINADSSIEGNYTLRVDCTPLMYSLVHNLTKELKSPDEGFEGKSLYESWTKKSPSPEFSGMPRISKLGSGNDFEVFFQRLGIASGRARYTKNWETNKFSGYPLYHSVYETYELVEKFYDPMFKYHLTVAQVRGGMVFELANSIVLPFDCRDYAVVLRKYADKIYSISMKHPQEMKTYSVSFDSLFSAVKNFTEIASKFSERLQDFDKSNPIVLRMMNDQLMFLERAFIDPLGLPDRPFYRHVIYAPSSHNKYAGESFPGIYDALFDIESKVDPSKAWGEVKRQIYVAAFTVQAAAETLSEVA
Experimental: (§1) FIG. 3—Relative binding affinities of DUPA-NIR conjugates 1-9 with respect to DUPA-FITC (14). PSMA-positive 22Rv1 human prostate cancer cells were incubated for 1 h at 37° C. in the presence of 100 nM DUPA-FITC with increasing concentrations of DUPA-NIR conjugates. […] Cell bound fluorescence was assayed as using flow cytometry.
as §1, with “6—Relative” for “3—Relative”, “with aromatic amino acids linkers” for “1-9”
as §1, with “3 Relative” for “3—Relative”
in vitro studies. […] PSMA-positive 22Rv1 human prostate cancer cells were incubated for 1 h at 37° C. in the presence of 100 nM DUPA-FITC with increasing concentrations of DUPA-NIR conjugates. […] Cell bound fluorescence was assayed as using flow cytometry.
PSMA-positive 22Rv1 human prostate cancer cells were incubated for 1 h at 37° C. in the presence of 100 nM DUPA-FITC with increasing concentrations of DUPA-NIR conjugates. […] Cell bound fluorescence was assayed as using flow cytometry.
as §1, with “24: Relative” for “3—Relative”, “conjugates” for “conjugates 1-9”
PSMA-positive 22Rv1 human prostate cancer cells were incubated for 1 h at 37° C. in the presence of 100 nM DUPA-FITC with increasing concentrations of DUPA-NIR conjugates. […] Cell bound fluorescence was assayed as using flow cytometry
Cancer cells were incubated for 1 h at 37° C. in the presence of 100 nM DUPA-FITC with increasing concentrations of compound 15. […] Cell bound fluorescence was assayed as using flow cytometry.

[1] = test system: 22Rv1 human prostate tumor xenograft; assay: Time dependent whole-body fluorescence imaging of DUPA-NIR conjugates, IVIS imager; type: in vivo, mouse; conditions: 6 or 20 nmol, imaged at different time intervals
Experimental: 22Rv1 human prostate tumor xenograft bearing mouse was injected with 20 nmol of 15 and imaged with IVIS imager (ex=745 nm, em=ICG, exposure time=1 s) at different time intervals.
22Rv1 human prostate tumor xenograft bearing mouse was injected with 20 nmol of 23 and imaged with IVIS imager (ex=745 nm, em=ICG, exposure time=1 s) at different time intervals.
22Rv1 human prostate tumor xenograft bearing mouse was injected with 20 nmol of 25 and imaged with IVIS imager (ex=745 nm, em=ICG, exposure time=1 s) at different time intervals
22Rv1 human prostate tumor xenograft bearing mouse was injected with 6 nmol of 35 and imaged with IVIS imager (ex=745 nm, em=ICG, exposure time=1 s) at different time intervals.
22Rv1 human prostate tumor xenograft bearing mouse was injected with 6 nmol of 36 and imaged with IVIS imager (ex=745 nm, em=ICG, exposure time=1 s) at different time intervals.
22Rv1 human prostate tumor xenograft bearing mouse was injected with 20 nmol of 39 and imaged with IVIS imager (ex=745 nm, em=ICG, exposure time=1 s) at different time intervals.
22Rv1 human prostate tumor xenograft bearing mouse was injected with 20 nmol of 40 and imaged with IVIS imager (ex=745 nm, em=ICG, exposure time=1 s) at different time intervals.
22Rv1 human prostate tumor xenograft bearing mouse was injected with 20 nmol of 41 and imaged with IVIS imager (ex=745 nm, em=ICG, exposure time=1 s) at different time intervals.
FIG. 25: Overlay of whole body or half body fluorescence image over white light images after adjusting the threshold. 22Rv1 human prostate tumor xenograft bearing mouse was injected with 20 nmol of 54 and imaged with IVIS imager (ex=745 nm, em=ICG, exposure time=1 s) at different time intervals.
22Rv1 human prostate tumor xenograft bearing mouse was injected with 20 nmol of 55 and imaged with IVIS imager (ex=745 nm, em=ICG, exposure time=1 s) at different time intervals.
22Rv1 human prostate tumor xenograft bearing mouse was injected with 20 nmol of 56 and imaged with IVIS imager (ex=745 nm, em=ICG, exposure time=1 s) at different time intervals.
22Rv1 human prostate tumor xenograft bearing mouse was injected with 20 nmol of 57 and imaged with IVIS imager (ex=745 nm, em=ICG, exposure time=1 s) at different time intervals
22Rv1 human prostate tumor xenograft bearing mouse was injected with 20 nmol of 58 and imaged with IVIS imager (ex=745 nm, em=ICG, exposure time=1 s) at different time intervals
22Rv1 human prostate tumor xenograft bearing mouse was injected with 20 nmol of 60 and imaged with IVIS imager (ex=745 nm, em=ICG, exposure time=1 s) at different time intervals.
in vivo studies. […] 22Rv1 human prostate tumor xenograft bearing mouse was injected with 20 nmol of 63 and imaged with IVIS imager (ex=745 nm, em=ICG, exposure time=1 s) at different time intervals.
22Rv1 human prostate tumor xenograft bearing mouse was injected with 6 nmol of 63 and imaged with IVIS imager (ex=745 nm, em=ICG, exposure time=1 s) at different time intervals.
22Rv1 human prostate tumor xenograft bearing mouse was injected with 20 nmol of 64 and imaged with IVIS imager (ex=745 nm, em=ICG, exposure time=1 s) at different time intervals.
22Rv1 human prostate tumor xenograft bearing mouse was injected with 6 nmol of 15 and imaged with IVIS imager (ex=745 nm, em=ICG, exposure time=1 s) at different time intervals.

| Kd (PSMA) [nM] | affinity for PSMA (in words) (PSMA) | SMILES | whole-body imaging [1] |
| --- | --- | --- | --- |
| 6.3 | very high affinity | CC1(C)C(/C=C/C2=C(SC[C@H](NC(=O)[C@H](Cc3ccccc3)NC(=O)CCCCCCCNC(=O)CC[C@H](NC(=O)N[C@@H](CCC(=O)O)C(=O)O)C(=O)O)C(=O)O)C(=C/C=C3/N(CCCCS(=O)(=O)O)c4ccc(S(=O)(=O)O)cc4C3(C)C)/CCC2)=[N+](CCCCS(=O)(=O)[O-])c2ccc(S(=O)(=O)O)cc21 [Compound 25] | very good whole-body imaging data within 2-4 hours |
|  | very high affinity | CC1(C)C(/C=C/C2=C(Oc3ccc(C[C@H](NC(=O)[C@H](CCCNC(=N)N)NC(=O)[C@H](Cc4ccccc4)NC(=O)CCCCCCCNC(=O)CC[C@H](NC(=O)N[C@@H](CCC(=O)O)C(=O)O)C(=O)O)C(=O)O)cc3)C(=C/C=C3/N(CCCCS(=O)(=O)O)c4ccc(S(=O)(=O)O)cc4C3(C)C)/CCC2)=[N+](CCCCS(=O)(=O)[O-])c2ccc(S(=O)(=O)O)cc21 [Compound 41] | very good whole-body imaging |
|  |  | CC1(C)C(/C=C/C2=C(Oc3ccc(C[C@H](NC(=O)[C@H](CCCNC(=N)N)NC(=O)[C@H](CCCNC(=N)N)NC(=O)CCCCCCCNC(=O)CC[C@H](NC(=O)N[C@@H](CCC(=O)O)C(=O)O)C(=O)O)C(=O)O)cc3)C(=C/C=C3/N(CCCCS(=O)(=O)O)c4ccc(S(=O)(=O)O)cc4C3(C)C)/CCC2)=[N+](CCCCS(=O)(=O)[O-])c2ccc(S(=O)(=O)O)cc21 [Compound 39] | very good whole-body imaging |
|  | very high affinity | CC1(C)C(/C=C/C2=C(Oc3ccc(C[C@H](NC(=O)[C@](C)(Cc4ccc(F)cc4)NC(=O)CCOCCOCCNC(=O)CC[C@H](NC(=O)N[C@@H](CCC(=O)O)C(=O)O)C(=O)O)C(=O)O)cc3)C(=C/C=C3/N(CCCCS(=O)(=O)O)c4ccc(S(=O)(=O)O)cc4C3(C)C)/CCC2)=[N+](CCCCS(=O)(=O)[O-])c2ccc(S(=O)(=O)O)cc21 [Compound 36] | very good whole-body imaging data within 2-4 hours |
| 7.5 | very high affinity | CC1(C)C(/C=C/C2=C(Oc3ccc(C[C@H](NC(=O)[C@H](Cc4ccccc4)NC(=O)[C@H](Cc4ccccc4)NC(=O)CCCCCCCNC(=O)CC[C@H](NC(=O)N[C@@H](CCC(=O)O)C(=O)O)C(=O)O)C(=O)O)cc3)C(=C/C=C3/N(CCCCS(=O)(=O)O)c4ccc(S(=O)(=O)O)cc4C3(C)C)/CCC2)=[N+](CCCCS(=O)(=O)[O-])c2ccc(S(=O)(=O)O)cc21 [Compound 23] | very good whole-body imaging data within 2-4 hours |
